According to patent US20090029855A1, “Quinoline Derivatives and Their Use as Pesticides” (priority 2006, published 2009):

System: Rice Green Leaf Hoppers (Nephoteftix Virescens)
Assay: Activity against rice green leaf hoppers, foliar spray on rice plants
Assay type: in vivo
Settings: 300 ppm; after 72 hours
Procedure: Leaf hopper and plant hoppers adults used for bioassay were obtained from a colony maintained continuously under laboratory conditions. For testing purposes, the test compound was diluted in 300 ppm (wt compound:vol diluent) in a 1:1 mixture of acetone:water, plus 0.1% EL 620 surfactant.
Hopper activity was evaluated using the foliar spray technique. Pofted rice plants (2-3 week old, Variety TN-1) were cleaned and dried prior to application. All plants were treated inside the fume hood using DeVilbiss atomizer at 25 psi with a spray volume of 5 ml/plant. To ensure uniform spray distribution, plants were placed in a rotating flat form inside the fume hood. Treated plants were then placed inside the holding room and allowed to dry for 2 hours. Each plant was caged using Mylar cages (4 inches diameter×19 inches in height) and inoculated with 10 adults hoppers. All test plants were held under continuous light and a temperature of about 28° C. for duration of the assay. Percent mortality was observed after 72 hours.

Cc1ccc(-c2ccc(S(=O)(=O)NCc3ccnc4ccccc34)cc2)c(Cl)c1 [I-32]
mortality: ≥ 75%
